Measurements from ChEMBL document CHEMBL5370684, “Small-Molecule Heterocyclic Compounds: Gq-Biased Agonists for the 5-HT2A Receptor in Neuropsychiatric Treatment” (ACS Med Chem Lett, 2023).

What was measured:
[1] = molecular target: T1, 5-hydroxytryptamine receptor 2A (Homo sapiens, UniProt P28223); experiment: Agonist activity at RLuc-fused 5-HT2A (unknown origin) expressed in HEK293T cells co-transfected with mVenus-fused beta arrestin-2/GRK2 assessed as beta arrestin-2 recruitment at 0.1 to 10 uM incubated for 30 mins using coelenterazine h as a substrate by BRET assay relative to control; assay type: functional, cell-based; details: dose 0.1-10 µM
T1 sequence (P28223 whole entry, the tested form may be a part): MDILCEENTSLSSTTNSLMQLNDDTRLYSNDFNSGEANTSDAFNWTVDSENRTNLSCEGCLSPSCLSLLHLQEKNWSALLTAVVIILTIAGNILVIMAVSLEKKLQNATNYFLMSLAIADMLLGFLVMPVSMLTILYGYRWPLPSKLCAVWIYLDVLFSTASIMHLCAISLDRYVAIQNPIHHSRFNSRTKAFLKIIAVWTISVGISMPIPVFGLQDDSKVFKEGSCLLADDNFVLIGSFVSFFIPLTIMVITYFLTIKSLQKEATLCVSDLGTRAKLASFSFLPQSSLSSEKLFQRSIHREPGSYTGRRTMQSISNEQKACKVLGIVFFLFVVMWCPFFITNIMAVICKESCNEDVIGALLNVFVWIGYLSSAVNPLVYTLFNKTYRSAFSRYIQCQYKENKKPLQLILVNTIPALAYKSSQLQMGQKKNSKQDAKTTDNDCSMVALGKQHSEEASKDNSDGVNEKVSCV

[2] = molecular target: T1, 5-hydroxytryptamine receptor 2A; experiment: Agonist activity at 5-HT2A (unknown origin) expressed in HEK293T cells co-transfected with RLuc-fused Galphaq/GFP2/Gy9/Gbeta3 assessed as Gaq hetero trimeric G protein activation at 0.1 to 10 uM incubated for 30 mins using coelenterazine 400a as a substrate by BRET assay relative to control; assay type: functional, cell-based; details: filed as agonist, dose 0.1-10 µM
[3] = molecular target: T1, 5-hydroxytryptamine receptor 2A; experiment: Displacement of [3H]-LSD form 5-HT2A (unknown origin) expressed in Flp-In-T-Rex-293 membrane by Microbeta scintillation counting analysis; assay type: cell membranes
[4] = molecular target: T1, 5-hydroxytryptamine receptor 2A; experiment: Agonist activity at RLuc-fused 5-HT2A (unknown origin) expressed in HEK293T cells co-transfected with mVenus-fused beta arrestin-2/GRK2 assessed as beta arrestin-2 recruitment incubated for 30 mins using coelenterazine h as a substrate by BRET assay; assay type: functional, cell-based
[5] = molecular target: T1, 5-hydroxytryptamine receptor 2A; experiment: Agonist activity at 5-HT2A (unknown origin) expressed in HEK293T cells co-transfected with RLuc-fused Galphaq/GFP2/Gy9/Gbeta3 assessed as Gaq hetero trimeric G protein activation incubated for 30 mins using coelenterazine 400a as a substrate by BRET assay; assay type: functional, cell-based

Ki [3] [nM] | EC50 [4] [nM] | EC50 [5] [nM] | SMILES | Emax ([1]; filed as agonist) [%] | Emax [2] [%] | Emax [1] [%]
 |  |  | Fc1ccc2[nH]nc(C3=CCCNC3)c2c1 | 96 | 88.3 | 
 |  |  | CN1CCC=C(c2n[nH]c3cc(F)ccc23)C1 |  | 47.1 | 27
 |  |  | CN1CCC=C(c2n[nH]c3c(Cl)cc(F)cc23)C1 | 88.5 | 91.4 | 
 |  |  | Fc1ccc2c(C3=CCCNC3)n[nH]c2c1 | 59.4 | 79.4 | 
 |  |  | COc1cccc2[nH]cc(C3=CCCNC3)c12 | 51.8 | 96.1 | 
 |  |  | CN1CCC=C(c2n[nH]c3c(Cl)ccc(F)c23)C1 | 50.9 | 95.4 | 
 |  |  | Fc1ccc(Cl)c2[nH]nc(C3=CCCNC3)c12 | 72.7 | 106 | 
 |  |  | COc1cccc2[nH]cc(C3=CCCN(C)C3)c12 | 47.7 | 91 | 
 |  |  | Clc1ccc2[nH]cc(C3=CCCNC3)c2c1 | 77.3 | 102 | 
 |  |  | CC(C)c1ccc2[nH]cc(C3=CCCNC3)c2c1 |  | 58.8 | 31.4
 |  |  | COc1ccnc2[nH]cc(C3=CCCN(C)C3)c12 |  | 67.1 | 32.2
 |  |  | CN1CCC=C(c2c[nH]c3c(Cl)c(F)ccc23)C1 | 56.5 | 89.2 | 
14 | 358 | 874 | C1=C(c2c[nH]c3cccc(-c4ccccc4)c23)CNCC1 |  | 59.6 | 15.1
 |  |  | Cc1ccnc2[nH]cc(C3=CCCN(C)C3)c12 |  | 68.7 | 38.9
 |  |  | Clc1ccc2[nH]nc(C3=CCCNC3)c2c1 | 97 | 94.8 | 
 |  |  | COc1cccc2[nH]nc(C3=CCCNC3)c12 | 75.9 | 81.7 | 
 |  |  | Cc1cccc2[nH]cc(C3=CCCNC3)c12 | 42 | 85.7 | 
